Source: patent US8008492B2, “Compounds that act as a vehicle for delivery through the blood-brain barrier and charge delivery vehicle constructions” (priority 2006, dated 2011)

Assays:
[1] = Immobilized artificial membrane chromatography (IAMC); format: physicochemical; settings: isocratic, phosphate buffer pH 7.4 and 20% MeCN
From the text: To evaluate the BBB-shuttles and BBB-shuttle-cargo constructs, a chromatographic technique, IAMC (immobilized artificial membrane chromatography) developed by Pidgeon was used (cf. A. Albert, Chemical aspects of selective toxicity. Nature 1958, vol. 182, pp. 421-423). This technique uses phospholipid molecules covalently immobilized to silica particles at high density as the stationary phase. It has been used to purify membrane proteins, to immobilize enzymes and to predict transport across biological barriers. […] IAMC interactions include ionic, lipophilic and hydrogen bonding interactions that can be combined under a parameter known as phospholipophilicity. […] The compounds were detected by UV absorption at 220 nm. […] The retention times (tr) were transformed into capacity factors (kIAM) according to the following equation: kIAM=(tr−t0)/t0, where tr is the retention time of the studied compound and t0 is the retention time of a compound that would not be retained by the column (e.g. citric acid). As a control, propranolol was studied. BBB-shuttles and the BBB-shuttle-cargo constructs were also evaluated by IAMC (Immobilized Artificial Membrane Chromatography), a chromatographic technique that measures the phospholipophilicity of our compounds, their tendency to interact with phosphatidylcholine covalently immobilized. See results in Table 6 and 7.

[2] = Parallel artificial membrane permeability assay (PAMPA); format: in vitro ADME, porcine; settings: 200 μM initial, pH 7.4, 4 hours, room temperature; for Effective permeability Pe: triplicate
From the text: Parallel artificial membrane permeability assay (PAM PA). The evaluation method chosen is the Parallel Artificial Membrane Permeability Assay (PAMPA), which allows to predict or evaluate only this transport mechanism. In general terms, this method is simple, automatizable with high throughput, has a low cost and require only a small amount of test compound. The PAMPA method originally introduced by Kansy at Roche uses an artificial membrane in the form of filter supported phospholipids bilayers ([…] al., “Physicochemical high throughput screening: Parallel artificial membrane permeability assay in the description of the absorption processes” J. Med. Chem. 1998, vol. 41, pp. 1007-1010). The phospholipid membrane mimics the cell membrane, but has no means for active or paracellular transport of drug molecules. It is a very convenient tool to evaluate the transport of compounds by passive diffusion. This technique allows the evaluation of pure compounds, crudes or even mixtures of compounds. PAMPA assay is used to determine the ability of the BBB shuttle-cargo constructs to cross the BBB by passive diffusion. […] The compound of interest was dissolved to the desired concentration (200 μM). The PAMPA sandwich was separated and the donor well was filled with 200 μL of the compound solution to be studied. The acceptor plate was placed into the donor plate making sure that the underside of membrane was in contact with buffer. 4 μL of mixture of phospholipids (20 mg/mL) in dodecane were added into each well and 200 μL of buffer solution were added to the each acceptor well. The plate was covered and incubated at room temperature in a saturated humidity atmosphere for 4 hours under orbital agitation at 100 rpm. […] The transport was also confirmed by MALDI-TOF spectrometry and HPLC-MS of aliquotes of the acceptor wells. The mixture of phospholipids used is a porcine polar brain lipid extract. […] The effective permeability was calculated using the following equation: [formula] where: • t time (hours) • CA(t) Compound concentration at the acceptor well at time t • CD(t0) Compound concentration at the donor well at 0 h As a control, the transport of propranolol was evaluated in parallel and a mass balance was calculated for all the studied compounds in order to detect if retention in the phospholipids occur. The different compounds were evaluated by PAMPA assay.

## O=C(O)[C@H]1O[C@@H](Oc2cc3oc(-c4ccccc4)cc(=O)c3c(O)c2O)[C@H](O)[C@@H](O)[C@@H]1O [Baicalin, baicalin, reference compound]
[1]; baicalin constructs
  Capacity factor kIAM: 1.24

## CN1C(=O)C(Cc2ccc(NC(=O)C3OC(Oc4cc5oc(-c6ccccc6)cc(=O)c5c(O)c4O)C(O)C(O)C3O)cc2)NC(=O)C1Cc1ccccc1 (centres unmarked) [Compound 5a, DKP Phe(p-NH—CO-baicalin)-N-MePhe]
[2]; baicalin constructs
  Log Pe: −7.7
  Effective permeability Pe: 1.33 10^−8 cm/s
[1]; baicalin constructs
  Capacity factor kIAM: 2.42

## CN1C(=O)C(Cc2ccc(NC(=O)C3OC(Oc4cc5oc(-c6ccccc6)cc(=O)c5c(O)c4O)C(O)C(O)C3O)cc2)NC(=O)C1CC1CCCCC1 (centres unmarked) [Compound 5b, DKP Phe(p-NH—CO-baicalin)-N-MeCha]
[2]; baicalin constructs
  Log Pe: −6.4
  Effective permeability Pe: 3.65 10^−7 cm/s
[1]; baicalin constructs
  Capacity factor kIAM: 6.09

## CN1C(=O)C(Cc2ccc(NC(=O)C3OC(Oc4cc5oc(-c6ccccc6)cc(=O)c5c(O)c4O)C(O)C(O)C3O)cc2)NC(=O)C1Cc1ccc2ccccc2c1 (centres unmarked) [Compound 5c, DKP Phe(p-NH—CO-baicalin)-N-Me2Nal]
[2]; baicalin constructs
  Log Pe: −5.4
  Effective permeability Pe: 3.70 10^−6 cm/s
[1]; baicalin constructs
  Capacity factor kIAM: 10.66

## CN1C(=O)C(Cc2ccc(NC(=O)C3OC(Oc4cc5oc(-c6ccccc6)cc(=O)c5c(O)c4O)C(O)C(O)C3O)cc2)NC(=O)C1Cc1ccc2ccc3cccc4ccc1c2c34 (centres unmarked) [Compound 5d, DKP Phe(p-NH—CO-baicalin)-N-Me1PyrenylAla]
[2]; baicalin constructs
  Log Pe: −8.7
  Effective permeability Pe: 0.19 10^−8 cm/s
[1]; baicalin constructs
  Capacity factor kIAM: >100

## CN1C(=O)C(Cc2ccc(NC(=O)C3OC(Oc4cc5oc(-c6ccccc6)cc(=O)c5c(O)c4O)C(O)C(O)C3O)cc2)NC(=O)C1CCc1ccccc1 (centres unmarked) [Compound 5e, DKP Phe(p-NH—CO-baicalin)-N-MeHomoPhe]
[2]; baicalin constructs
  Log Pe: −9.3
  Effective permeability Pe: 0.05 10^−8 cm/s
[1]; baicalin constructs
  Capacity factor kIAM: 4.15

## CCCCCCC1C(=O)NC(Cc2ccc(NC(=O)C3OC(Oc4cc5oc(-c6ccccc6)cc(=O)c5c(O)c4O)C(O)C(O)C3O)cc2)C(=O)N1C (centres unmarked) [Compound 5f, DKP Phe(p-NH—CO-baicalin)-N-MeOct]
[2]; baicalin constructs
  Log Pe: −6.3
  Effective permeability Pe: 4.97 10^−7 cm/s
[1]; baicalin constructs
  Capacity factor kIAM: 10.47

## CN1C(=O)C(Cc2ccc(NCC(=O)NCCc3ccc(O)c(O)c3)cc2)NC(=O)C1Cc1ccccc1 (centres unmarked) [Compound 6a, DKP Phe(p-NH—CH2—CO—NH-dopamine)-N-MePhe]
[2]; dopamine constructs
  Log Pe: −7.4
  Effective permeability Pe: 3.61 10^−8 cm/s
[1]; dopamine constructs
  Capacity factor kIAM: 3.54

## CN1C(=O)C(Cc2ccc(NCC(=O)NCCc3ccc(O)c(O)c3)cc2)NC(=O)C1CC1CCCCC1 (centres unmarked) [Compound 6b, DKP Phe(p-NH—CH2—CO—NH-dopamine)-N-MeCha]
[2]; dopamine constructs
  Log Pe: −7.6
  Effective permeability Pe: 2.28 10^−8 cm/s
[1]; dopamine constructs
  Capacity factor kIAM: 0.86

## CN1C(=O)C(Cc2ccc(NCC(=O)NCCc3ccc(O)c(O)c3)cc2)NC(=O)C1Cc1ccc2ccccc2c1 (centres unmarked) [Compound 6c, DKP Phe(p-NH—CH2—CO—NH-dopamine)-N-Me2Nal]
[2]; dopamine constructs
  Log Pe: −6.9
  Effective permeability Pe: 11.5 10^−8 cm/s
[1]; dopamine constructs
  Capacity factor kIAM: 16.14

## CN1C(=O)C(Cc2ccc(NCC(=O)NCCc3ccc(O)c(O)c3)cc2)NC(=O)C1Cc1ccc2ccc3cccc4ccc1c2c34 (centres unmarked) [Compound 6d, DKP Phe(p-NH—CH2—CO—NH-dopamine)-N-Me(1PyrenylAla)]
[2]; dopamine constructs
  Log Pe: −7.7
  Effective permeability Pe: 1.90 10^−8 cm/s
[1]; dopamine constructs
  Capacity factor kIAM: >100

## CN1C(=O)C(Cc2ccc(NCC(=O)NCCc3ccc(O)c(O)c3)cc2)NC(=O)C1CCc1ccccc1 (centres unmarked) [Compound 6e, DKP Phe(p-NH—CH2—CO—NH-dopamine)-N-MeHomoPhe]
[2]; dopamine constructs
  Log Pe: −8.1
  Effective permeability Pe: 0.76 10^−8 cm/s
[1]; dopamine constructs
  Capacity factor kIAM: 3.15

## CCCCCCC1C(=O)NC(Cc2ccc(NCC(=O)NCCc3ccc(O)c(O)c3)cc2)C(=O)N1C (centres unmarked) [Compound 6f, DKP Phe(p-NH—CH2—CO—NH-dopamine)-N-MeOct]
[2]; dopamine constructs
  Log Pe: −6.5
  Effective permeability Pe: 32.1 10^−8 cm/s
[1]; dopamine constructs
  Capacity factor kIAM: 15.47

## NCCc1ccc(O)c(O)c1 [Dopamine, dopamine, reference compound]
[1]; dopamine constructs
  Capacity factor kIAM: 0.30
